Key:
Experiment in all cases: IA-DTB cysteine engagement
Type in all cases: binding
Conditions in all cases: 22Rv1 cells, 20 μM probe, 1 h, relative to DMSO
HNRNPLL_C235 = target: T1, HNRNPLL_C235 (Homo sapiens, UniProt Q8WVV9)
T1 construct: endogenous in cells; host or cells: 22Rv1
T1 sequence (Q8WVV9 1-542): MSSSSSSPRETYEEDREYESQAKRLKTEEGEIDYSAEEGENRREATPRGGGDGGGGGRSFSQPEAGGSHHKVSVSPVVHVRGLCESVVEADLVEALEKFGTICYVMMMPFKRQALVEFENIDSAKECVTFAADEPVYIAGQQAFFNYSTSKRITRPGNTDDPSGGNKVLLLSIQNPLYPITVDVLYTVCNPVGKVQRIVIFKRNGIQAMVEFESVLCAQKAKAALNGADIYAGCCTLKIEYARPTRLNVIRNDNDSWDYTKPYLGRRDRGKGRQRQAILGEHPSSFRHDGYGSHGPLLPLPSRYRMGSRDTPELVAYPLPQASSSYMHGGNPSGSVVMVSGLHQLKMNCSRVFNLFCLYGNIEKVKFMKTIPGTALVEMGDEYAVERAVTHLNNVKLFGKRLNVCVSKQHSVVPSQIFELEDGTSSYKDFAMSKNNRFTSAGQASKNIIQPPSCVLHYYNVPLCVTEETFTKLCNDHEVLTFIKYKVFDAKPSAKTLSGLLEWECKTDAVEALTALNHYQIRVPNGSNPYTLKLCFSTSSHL
Method in brief: (§1)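 In-situ probe treatment of cells; lysate 2 mg/mL, IA-DTB 1 h RT; MeOH/CHCl3 precipitation, DTT/iodoacetamide, trypsin; streptavidin enrichment; TMT labeling, high-pH fractionation. Ratio = TMT reporter intensity / mean DMSO channels, median-normalized.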

ABCB8_C462 = target: T2, ABCB8_C462 (Homo sapiens, UniProt Q9NUT2)
T2 construct: endogenous in cells; host or cells: 22Rv1
T2 sequence (Q9NUT2 26-735): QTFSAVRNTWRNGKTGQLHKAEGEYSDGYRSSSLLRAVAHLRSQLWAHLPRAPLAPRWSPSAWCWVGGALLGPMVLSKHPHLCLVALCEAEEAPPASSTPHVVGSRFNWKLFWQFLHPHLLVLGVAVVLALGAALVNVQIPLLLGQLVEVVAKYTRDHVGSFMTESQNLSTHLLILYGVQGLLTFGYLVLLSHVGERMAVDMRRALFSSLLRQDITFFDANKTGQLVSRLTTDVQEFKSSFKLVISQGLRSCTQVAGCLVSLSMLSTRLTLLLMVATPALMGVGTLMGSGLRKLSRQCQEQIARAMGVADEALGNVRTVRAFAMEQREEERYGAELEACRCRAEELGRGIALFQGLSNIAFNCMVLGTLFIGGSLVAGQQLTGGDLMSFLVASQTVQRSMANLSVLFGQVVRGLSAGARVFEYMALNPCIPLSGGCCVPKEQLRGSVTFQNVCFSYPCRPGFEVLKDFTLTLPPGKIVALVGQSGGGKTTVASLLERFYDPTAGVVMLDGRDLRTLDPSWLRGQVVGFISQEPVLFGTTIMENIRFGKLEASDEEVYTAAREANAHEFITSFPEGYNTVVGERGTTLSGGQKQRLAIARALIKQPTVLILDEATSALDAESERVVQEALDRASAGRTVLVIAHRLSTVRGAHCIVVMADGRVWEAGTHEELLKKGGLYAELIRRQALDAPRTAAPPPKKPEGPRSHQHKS
Method in brief: as §1

GSTO1_C32 = target: T3, GSTO1_C32 (Homo sapiens, UniProt P78417)
T3 construct: endogenous in cells; host or cells: 22Rv1
T3 sequence (P78417 1-241): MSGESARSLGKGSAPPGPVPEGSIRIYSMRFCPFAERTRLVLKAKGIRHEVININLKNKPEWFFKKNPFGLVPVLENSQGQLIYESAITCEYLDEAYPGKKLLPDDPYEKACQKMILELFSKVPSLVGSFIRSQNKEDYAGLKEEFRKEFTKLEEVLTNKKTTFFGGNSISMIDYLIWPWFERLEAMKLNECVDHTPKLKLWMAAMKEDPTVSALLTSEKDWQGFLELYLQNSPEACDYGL
Method in brief: as §1

Row | SMILES | % engagement HNRNPLL_C235 (HNRNPLL_C235) [%] | % engagement ABCB8_C462 (ABCB8_C462) [%] | % engagement GSTO1_C32 (GSTO1_C32) [%]
1 | C=CC(=O)N1C[C@H](c2ccc(Br)cc2)[C@H]1C(=O)Nc1cccc2cccnc12 [MY-3A, (2S,3S)-1-acryloyl-3-(4-bromophenyl)-N-(quinolin-8-yl)azetidine-2-carboxamide] | −7.5 | 19.5 | 79
2 | C=CC(=O)N1C[C@H](c2ccc(Br)cc2)[C@@H]1C(=O)Nc1cccc2cccnc12 [MY-1B, (2R,3S)-1-acryloyl-3-(4-bromophenyl)-N-(quinolin-8-yl)azetidine-2-carboxamide] | 34 | 39 | 82
3 | C=CC(=O)N1C[C@H](c2ccc(Br)cc2)[C@H]1C(=O)Nc1cccc2cccnc12 [MY-3B, (2S,3S)-1-acryloyl-3-(4-bromophenyl)-N-(quinolin-8-yl)azetidine-2-carboxamide] | 75 | 73.25 | 80.5
4 | C=CC(=O)N1C[C@@H](c2ccc(Br)cc2)[C@H]1C(=O)Nc1cccc2cccnc12 [MY-1A, (2S,3R)-1-acryloyl-3-(4-bromophenyl)-N-(quinolin-8-yl)azetidine-2-carboxamide] | 15 | 28.5 | 22

— patent US20250034216A1, “STEREOSELECTIVE COVALENT LIGANDS FOR ONCOGENIC AND IMMUNOLOGICAL PROTEINS” (The Scripps Research Institute, priority 2021, published 2025)
